# Literature values as cited in patent US12551462B2, “Anti-aging composition with rutin, apigenin, epigallocatechin gallate, lipoic acid and the NAD precursor, niacinamide” (NUCHIDO LIMITED, priority 2018, dated 2026).
# Tested on: NAD concentration
# Conditions: Trammell et al. 2016
compound,measurement,value
"NC(=O)c1ccc[n+]([C@@H]2O[C@H](CO)[C@@H](O)[C@H]2O)c1 [Niagen, nicotinamide riboside]",Enhancement of NAD (as % baseline),270%
